The record followed here is patent US8951992B2, “Mycobacterium membrane protease as a target for inhibitors of intrabacterial pH homeostasis” (Cornell University, priority 2008, dated 2015).

Holding throughout (assay type): cell-based, Mycobacterium tuberculosis
Experiment [1] deals with lysX mutant.
Experiment [2] deals with Wild-type H37Rv transformed with pH-GFP. The following applies: pH 4.5.
Experiment [3] relates to Rv3671c mutant.
The subject of experiment [4] is Rv3671c mutant. The source holds these as a separate data set.
Experiment [5] has as its system Rv3671c mutant. The source holds these as a separate data set.
Experiment [6] concerns Rv3671c mutant. The source holds these as a separate data set.
For experiment [7], the system named is Rv3671c mutant in IFN-γ-activated macrophages.
The test system is the same in experiment [8]. The source holds these as a separate data set.

With `CO[C@H]1/C=C/O[C@@]2(C)Oc3c(C)c(O)c4c(O)c(c(/C=N/N5CCN(C)CC5)c(O)c4c3C2=O)NC(=O)/C(C)=C\C=C\[C@H](C)[C@H](O)[C@@H](C)[C@@H](O)[C@@H](C)[C@H](OC(C)=O)[C@@H]1C` [rifampin], the “sensitivity of the lysX mutant to the antibiotic” value in experiment [1] is reported as “hypersensitive”. Moreover, in experiment [2], the “effect on Mtb's pHIB” value is on record as “did not significantly alter pHIB”. Also, the “sensitivity of the Rv3671c mutant to the antibiotic” value in experiment [3] was “hypersensitive”.
As for `CC[C@H]1OC(=O)[C@H](C)[C@@H](O[C@H]2C[C@@](C)(OC)[C@@H](O)[C@H](C)O2)[C@H](C)[C@@H](O[C@@H]2O[C@H](C)C[C@H](N(C)C)[C@H]2O)[C@](C)(O)C[C@@H](C)C(=O)[C@H](C)[C@@H](O)[C@]1(C)O` [erythromycin], the “sensitivity of the lysX mutant to the antibiotic” value in experiment [1] is given as “hypersensitive”. For the same compound, the “sensitivity of the Rv3671c mutant to the antibiotic” value in experiment [3] is reported as “hypersensitive”.
Consider `[H]/N=C(/N)N[C@H]1[C@H](O)[C@@H](O)[C@H](O[C@@H]2O[C@@H](C)[C@](O)(C=O)[C@H]2O[C@@H]2O[C@@H](CO)[C@H](O)[C@@H](O)[C@@H]2NC)[C@@H](N/C(N)=N\[H])[C@@H]1O` [streptomycin], for which the “effect on Mtb's pHIB” value in experiment [2] is listed as “did not significantly alter pHIB”.
Take `CC[C@@]1([C@@H]2O[C@@H]([C@H]3O[C@@](O)(CO)[C@H](C)C[C@@H]3C)C[C@@H]2C)CC[C@H]([C@]2(C)CC[C@]3(C[C@H](O)[C@@H](C)[C@@H]([C@@H](C)[C@@H](OC)[C@H](C)C(=O)O)O3)O2)O1` [monensin]: the “effect on Mtb's pHIB” value in experiment [2] is “concentration dependent decline in pHIB”. The “effect on the Rv3671c mutant's pHIB” value in experiment [4] is “further reduced”. Also, in experiment [5], the “effect on the Rv3671c mutant's survival” value was “further attenuated”.
`N#CC(C#N)=NNc1cccc(Cl)c1` [carbonyl cyanide m-chlorophenylhydrazone]: the “effect on the Rv3671c mutant's pHIB” value in experiment [4] was “further reduced”. Also, in experiment [5], the “effect on the Rv3671c mutant's survival” value is “further attenuated”.
In the case of `CC[C@@H](CO)NCCN[C@@H](CC)CO` [Ethambutol], in experiment [2], the “concentrations causing a substantial decline in pHIB” value is reported as not below 8 μg/ml.
Regarding `NNC(=O)c1ccncc1` [isoniazid], the “effect on Mtb's pHIB” value in experiment [2] is “did not significantly alter pHIB”.
With `CCCCCCCCCCCCOS(=O)(=O)[O-].[Na+]` [SDS], the “sensitivity of the Rv3671c mutant to SDS” value in experiment [6] is given as “hypersensitive”.
Regarding `Cl.N` [NH4Cl], the “effect on survival of the Rv3671c mutant” value in experiment [7] is given as “restored”. In addition, the “effect on pHIB of the Rv3671c mutant” value in experiment [8] is on record as “protected”.
Turning to `NC(=O)c1cnccn1` [pyrazinmide], the “effect on Mtb's pHIB” value in experiment [2] is “did not significantly alter pHIB”.
